These results are taken from article PMC6337485, “Olive Biophenols Reduces Alzheimer’s Pathology in SH-SY5Y Cells and APPswe Mice” (International Journal of Molecular Sciences, 2018).

The structures appear in SMILES notation. Where two headings read alike, the source gives them in different places.

By IC50 is commonly meant the midpoint of a concentration-inhibition curve.

Data set [1] deals with T1, Aβ42 fibrils (Homo sapiens, UniProt P05067). As to the kind of experiment: Congo red binding assay, Aβ42 fibril inhibition. Format: biochemical. Particulars: for Congo-Red Assay % Inhibition: highest concentration, 1000 µM standard.
Data set [2] relates to SH-SY5Y cells. The experiment in a line: Aβ42 induced SH-SY5Y cells toxicity and olive biophenols treatment (MTT viability). Particulars: 1000 µM standard, 24 h pre-incubation, then 25 µM Aβ42 for 24 h.
Another data set deals with BACE-1 enzyme. More on the design: method as in PMID 29772299. Particulars: among olive biophenols; cited from earlier work.
Data set [3] concerns the target T1, Aβ42 fibrils. The experiment in a line: Transmission electron microscope (TEM) imaging of Aβ42 fibrils with olive biophenols. Particulars: biophenol ≥200 µM, 20 µM Aβ42 fibrils, 24 h, 37 °C. Format: biochemical. As for the experimental part:
Ten µL aliquot of each sample was spotted onto a glow-discharged, carbon-coated formvar grid and incubated for 30 min. The droplet then was displaced with an equal volume of 2.5% glutaraldehyde (v/v) and incubated for an additional 5 min. Finally, the grid was stained with 10 μL of 3% 0.22 µm filtered uranyl acetate (v/v) twice, and the solution was gently wicked off using Whatman’s grade-1 qualitative filter paper and the grid was then air-dried. Samples were examined by using a Hitachi H7100FA TEM (Hitachi, Japan) at the Centre for Advanced Microscopy, Australian National University, Canberra. All the images were captured at a voltage of 125 kV and an instrumental magnification of 2000×.

Data set [4] addresses T1, Aβ42 fibrils. The experiment in a line: Thioflavin-T (ThT) fluorometric assay, Aβ42 fibril inhibition. Format: biochemical. Particulars: for Thioflavin-T Assay % Inhibition: highest concentration, 1000 µM standard.
Data set [5] concerns SH-SY5Y cells.
The subject of data set [6] is SH-SY5Y cells. The source holds these as a separate data set.
Data set [7] concerns SH-SY5Y cells. More on the design: method as in PMID 29109370. Particulars: cited from earlier work.
Data set [8] deals with SH-SY5Y cells. Particulars: human, 1000 µM.
The subject of data set [9] is SH-SY5Y cells. Particulars: human, 1000 µM. The source holds these as a separate data set.
[10] abbreviates: 1000 µM standard, 24 h pre-incubation, then 25 µM Aβ42 and 200 µM L-DOPA for 24 h.
Setting [11] is: 1000 µM standard, 24 h pre-incubation, then 25 µM Aβ42 and 200 µM copper for 24 h.
Where [12] appears, read: standard biophenols 10–1000 µM, pre-formed Aβ42 fibril, 2 h, room temperature.

T1 sequence (P05067 672-713 limits assumed): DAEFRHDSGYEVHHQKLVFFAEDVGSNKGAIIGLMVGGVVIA

Take `C/C=C1/[C@H](O[C@@H]2O[C@H](CO)[C@@H](O)[C@H](O)[C@H]2O)OC=C(C(=O)OC)[C@H]1CC(=O)OCCc1ccc(O)c(O)c1` [Oleuropein (OL), Oleuropein]: on Aβ42 fibrils [1], the “Congo-Red Assay % Inhibition” value is on record as 65 ± 0.3%. Also, the IC50 on Aβ42 fibrils [1] (read-out: Congo-Red Assay IC50) was 36.5 µM. Further, in the data set on SH-SY5Y cells [2], the “Aβ-SH-SY5Y Toxicity % Viability” value stood at 68 ± 0.69%. In addition, the BACE-1 enzyme inhibition result with BACE-1 enzyme is recorded as “strongest inhibitor”. The “Effect on formed Aβ42 fibrils (TEM)” value on Aβ42 fibrils [3] is “significant reduction in both the size and number of fibrils”. Also, on Aβ42 fibrils [4], the half-maximal inhibitory concentration (IC50) turned out to be 22.9 µM and the “Thioflavin-T Assay % Inhibition” value is given as 61 ± 0.33%. Besides, in the data set on SH-SY5Y cells [5] (setting [10]), the “Aβ-L-DOPA-SH-SY5Y Toxicity % Viability” value is reported as 74 ± 0.23%. For the same compound, the “Aβ-Cu-SH-SY5Y Toxicity % Viability” value in the data set on SH-SY5Y cells [6] (setting [11]) was 76 ± 1.61%.

As to `OCCc1ccc(O)c(O)c1` [Hydroxytyrosol (HT), Hydroxytyrosol], the “Congo-Red Assay % Inhibition” value at Aβ42 fibrils [1] was determined as 50 ± 0.4%. Moreover, at Aβ42 fibrils [1] (read-out: Congo-Red Assay IC50), the concentration for half-maximal inhibition (IC50) is 97.8 µM. Besides, the “Aβ-SH-SY5Y Toxicity % Viability” value in the data set on SH-SY5Y cells [2] amounted to 60 ± 1.00%. For the same compound, the “Thioflavin-T Assay % Inhibition” value on Aβ42 fibrils [4] stood at 45 ± 0.47%. Also, the “Thioflavin-T Assay IC50” value on Aβ42 fibrils [4] (setting [12]) is reported as “unable to achieve IC50 value”. The “Aβ-L-DOPA-SH-SY5Y Toxicity % Viability” value in the data set with SH-SY5Y cells [5] (setting [10]) came out at 64 ± 1.02%. Besides, the “Aβ-Cu-SH-SY5Y Toxicity % Viability” value in the data set on SH-SY5Y cells [6] (setting [11]) was 60 ± 0.84%.

As for `CC(Cc1ccc(O)c(O)c1)C(C)Cc1ccc(O)c(O)c1` (stereo not shown) [Nordihroguaretic acid (NDGA), Nordihydroguaiaretic acid, reference compound], the “Congo-Red Assay % Inhibition” value on Aβ42 fibrils [1] worked out at 69 ± 0.4%. Moreover, the half-inhibitory concentration (IC50) amounted to 14.4 µM at Aβ42 fibrils [1] (standard biophenols 10–1000 µM, pre-formed Aβ42 fibril, 2 h, room temperature, read-out: Congo-Red Assay IC50) and 15.4 µM at Aβ42 fibrils [4] (setting [12]). The “Thioflavin-T Assay % Inhibition” value on Aβ42 fibrils [4] worked out at 70 ± 0.5%.

As to `O=c1c(O)c(-c2ccc(O)c(O)c2)oc2cc(O)cc(O)c12` [Quercetin (QU), Quercetin], the “Protection of SH-SY5Y cells against Cu-induced toxicity” value with SH-SY5Y cells [7] is “rescue SH-SY5Y cells”. Further, on Aβ42 fibrils [1], the IC50 stood at 73.8 µM and the “Congo-Red Assay % Inhibition” value came out at 55 ± 0.71%. Also, the “Effect on formed Aβ42 fibrils (TEM)” value at Aβ42 fibrils [3] is reported as “moderate reduction in fibril formation”. Further, on Aβ42 fibrils [4], the half-inhibitory concentration (IC50) was 45.9 µM and the “Thioflavin-T Assay % Inhibition” value is listed as 57 ± 0.34%. Also, the “Aβ-Cu-SH-SY5Y Toxicity % Viability” value in the data set on SH-SY5Y cells [6] (human, SH-SY5Y neuroblastoma cells, 1000 µM) is listed as 60 ± 0.52%.

`O=C(O)/C=C/c1ccc(O)c(O)c1` [Caffeic acid (CA), Caffeic acid]: the “Congo-Red Assay IC50” value on Aβ42 fibrils [1] (setting [12]) was “unable to achieve IC50 value”. In addition, the “Aβ-SH-SY5Y Toxicity % Viability” value in the data set on SH-SY5Y cells [2] is 62 ± 0.53%. Also, the “Thioflavin-T Assay IC50” value at Aβ42 fibrils [4] (setting [12]) is recorded as “unable to achieve IC50 value”. For the same compound, the “Aβ-L-DOPA-SH-SY5Y Toxicity % Viability” value in the data set on SH-SY5Y cells [5] (setting [10]) came to 67 ± 0.43%. Also, in the data set with SH-SY5Y cells [6] (setting [11]), the “Aβ-Cu-SH-SY5Y Toxicity % Viability” value worked out at 62 ± 0.93%.

In the case of `O=c1cc(-c2ccc(O)c(O)c2)oc2cc(O)cc(O)c12` [Luteolin (LU), Luteolin], the “Congo-Red Assay % Inhibition” value on Aβ42 fibrils [1] was found to be 61 ± 0.33%. The IC50 at Aβ42 fibrils [1] (read-out: Congo-Red Assay IC50) is 46.3 µM. The “Aβ-SH-SY5Y Toxicity % Viability” value in the data set with SH-SY5Y cells [2] turned out to be 65 ± 0.39%. Besides, at Aβ42 fibrils [4], it took 36.9 µM to reach half-maximal inhibition (IC50) and the “Thioflavin-T Assay % Inhibition” value is listed as 64 ± 0.4%. Further, in the data set with SH-SY5Y cells [5] (setting [10]), the “Aβ-L-DOPA-SH-SY5Y Toxicity % Viability” value came out at 69 ± 0.87%. Also, the “Aβ-Cu-SH-SY5Y Toxicity % Viability” value with SH-SY5Y cells [6] (setting [11]) was determined as 67 ± 0.52%.

As to `C[C@@H]1O[C@@H](O[C@@H]2[C@@H](O)[C@H](OCCc3ccc(O)c(O)c3)O[C@H](CO)[C@H]2OC(=O)/C=C/c2ccc(O)c(O)c2)[C@H](O)[C@H](O)[C@H]1O` [Verbascoside (VB), Verbascoside], the “Protection of SH-SY5Y cells against Cu-induced toxicity” value in the data set on SH-SY5Y cells [7] is on record as “rescue SH-SY5Y cells”. At Aβ42 fibrils [1], the “Congo-Red Assay % Inhibition” value was 57 ± 0.51%. Further, the 50% inhibitory concentration (IC50) on Aβ42 fibrils [1] (read-out: Congo-Red Assay IC50) is 59.6 µM. Moreover, the BACE-1 enzyme inhibition entry with BACE-1 enzyme was “strongest inhibitor”. Besides, the “Aβ-SH-SY5Y Toxicity % Viability” value in the data set on SH-SY5Y cells [8] stood at 66 ± 1.11%. Also, on Aβ42 fibrils [4], the IC50 was determined as 22.6 µM and the “Thioflavin-T Assay % Inhibition” value was found to be 61 ± 0.35%. Besides, in the data set on SH-SY5Y cells [9], the “Aβ-Cu-SH-SY5Y Toxicity % Viability” value was determined as 70 ± 0.48%. The “Aβ-L-DOPA-SH-SY5Y Toxicity % Viability” value in the data set on SH-SY5Y cells [5] (human, 1000 µM) was 69 ± 0.66%.

Take `C[C@@H]1O[C@@H](OC[C@H]2O[C@@H](Oc3c(-c4ccc(O)c(O)c4)oc4cc(O)cc(O)c4c3=O)[C@H](O)[C@@H](O)[C@@H]2O)[C@H](O)[C@H](O)[C@H]1O` [Rutin (RU), Rutin]: the “Congo-Red Assay % Inhibition” value on Aβ42 fibrils [1] worked out at 48 ± 0.33%. Also, the “Congo-Red Assay IC50” value on Aβ42 fibrils [1] (setting [12]) is reported as “unable to achieve IC50 value”. The “Aβ-SH-SY5Y Toxicity % Viability” value in the data set with SH-SY5Y cells [2] is on record as 59 ± 0.59%. Besides, at Aβ42 fibrils [4], the “Thioflavin-T Assay % Inhibition” value amounted to 49 ± 0.25%. In addition, the “Thioflavin-T Assay IC50” value on Aβ42 fibrils [4] (setting [12]) is recorded as “unable to reach the IC50 concentration”. Further, in the data set on SH-SY5Y cells [5] (setting [10]), the “Aβ-L-DOPA-SH-SY5Y Toxicity % Viability” value is recorded as 57 ± 0.85%. Also, the “Aβ-Cu-SH-SY5Y Toxicity % Viability” value in the data set on SH-SY5Y cells [6] (setting [11]) was 54 ± 0.71%.
